Data on three compounds can be found in ChEMBL document CHEMBL1201862, “PubChem BioAssay data set” (2004).

The structures appear in SMILES notation.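 Protocol summary: plate cells (96-well), add compound at 5 concentrations, incubate 48 h, interpolate endpoints linearly. The concentration for 50% growth inhibition is given as GI50.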 The source made the active and inactive calls. No stated cut-off is given here; in the data, active = GI50 up to about 1.1 µM and inactive = higher.

Among the test systems are OVCAR-3; K562; HCT-15; HOP-62; SNB-75; COLO 205; SN12C; IGROV-1; HL-60; SK-OV-3; HOP-92; CCRF-CEM; UACC-62; A498; OVCAR-4; SF-295; RPMI-8226; UO-31; OVCAR-5; U-251.
What all share (assay): NCI-60 cell line screen, 48 h

`O=C1CCC[C@H]2O[C@@H](COC(=O)c3ccccc3)C[C@H]2O1`: the GI50 in the assay on OVCAR-3 was > 100 µM (inactive); in the assay on K562, > 100 µM (inactive); in the assay on HCT-15 it was over 100 µM; in the assay on HOP-62, > 100 µM (inactive); with SNB-75, > 100 µM (inactive); with COLO 205, > 100 µM (inactive). The GI50 with SN12C, with IGROV-1, with HL-60, in the assay on SK-OV-3, in the assay with HOP-92 and in the assay with CCRF-CEM was > 100 µM (inactive) each time. The GI50 in the assay on UACC-62, in the assay on A498, in the assay with OVCAR-4, with SF-295, with RPMI-8226 and with UO-31 was > 100 µM (inactive) each time. In addition, the GI50 with OVCAR-5 and with U-251 was > 100 µM (inactive) in each case.
As for `C1=C(c2ccccc2)SC(N2CCCCC2)S1` (stereo not given), the GI50 with OVCAR-3 was > 100 µM (inactive); in the assay on K562 it was 52.2 µM (inactive); with HCT-15 it was over 100 µM; in the assay on HOP-62, > 100 µM (inactive); in the assay on SNB-75 it was 55.6 µM (inactive); in the assay with COLO 205 it was > 100 µM (inactive). For the same compound, the GI50 in the assay with SN12C is > 100 µM (inactive); in the assay on IGROV-1, > 100 µM (inactive); in the assay with HL-60, 69 µM (inactive); with SK-OV-3, > 100 µM (inactive); in the assay with HOP-92, > 100 µM (inactive); in the assay with CCRF-CEM, 95.5 µM (inactive). In addition, the GI50 is > 100 µM (inactive) in the assay on UACC-62; > 100 µM (inactive) in the assay with A498; > 100 µM (inactive) in the assay on OVCAR-4; > 100 µM (inactive) in the assay on SF-295; 59.7 µM (inactive) with RPMI-8226; > 100 µM (inactive) in the assay with UO-31. Moreover, the GI50 with OVCAR-5 and in the assay with U-251 was > 100 µM (inactive) each time.
Take `CN(C)C(=O)N(CCCl)N=O`: the GI50 in the assay with OVCAR-3 is > 100 µM (inactive); in the assay on K562 it was > 100 µM (inactive); with HCT-15, over 100 µM; in the assay on HOP-62, > 100 µM (inactive); in the assay with SNB-75, > 63.7 µM (inactive); in the assay with COLO 205 it was > 100 µM (inactive). Also, the GI50 in the assay with SN12C, in the assay with IGROV-1, with HL-60, in the assay with SK-OV-3, with HOP-92 and with CCRF-CEM was > 100 µM (inactive) in each case. Besides, the GI50 in the assay on UACC-62, with A498, with OVCAR-4, with SF-295, in the assay with RPMI-8226 and with UO-31 was > 100 µM (inactive) each time. Also, the GI50 with OVCAR-5 and in the assay on U-251 was > 100 µM (inactive) in each case.
